Measurements from ChEMBL document CHEMBL5518238, “Structure-Activity Relationship (SAR) Studies of Novel Monovalent AR/AR-V7 Dual Degraders with Potent Efficacy against Advanced Prostate Cancer” (J Med Chem, 2024).
The source made the active and inactive calls. The calls are words filed in the database; no cut-off is given here.

Assays:
[1] = Oral bioavailability in Sprague-Dawley rat at 50 mg/kg by LC-MS/MS analysis; format: ADME, organism-based; conditions: in vivo
[2] = AUC (0 to infinity) in Sprague-Dawley rat at 5 mg/kg, iv by LC-MS/MS analysis; format: ADME, organism-based; conditions: in vivo
[3] = MRT (0 to t) in Sprague-Dawley rat at 50 mg/kg, po by LC-MS/MS analysis; format: ADME, organism-based; conditions: in vivo
[4] = AUC (0 to infinity) in Sprague-Dawley rat at 50 mg/kg, po by LC-MS/MS analysis; format: ADME, organism-based; conditions: in vivo
CWR22R [5] = assay: Induction of apoptosis in human 22Rv1 cells assessed as effect on PARP1 level incubated for 24 hrs by Western blot analysis; format: functional, cell-based; conditions: dose <= 10.0 µM
DU-145 = assay: Antiproliferative activity against AR-negative human DU-145 cells assessed as inhibition of cell growth incubated for 48 hrs by CCK-8 assay; format: functional, cell-based; conditions: DU-145, 48 h
CWR22R [6] = assay: Antitumor activity against human 22Rv1 cells xenografted in NSG mouse assessed as tumor growth inhibition at 30 mg/kg, IG administered once daily for 21 days; format: functional; conditions: 22Rv1, po, 504 h, time 21 day, read-out: TGI
CWR22R [7] = assay: Induction of apoptosis in human 22Rv1 cells at 10 uM incubated for 24 hrs by Annexin V-FITC/PI staining based flow cytometric analysis (reference value: 3.70 %); format: functional
Androgen receptor = Androgen receptor (Homo sapiens, UniProt P10275); assay: (§1) Induction of AR-V7 degradation in human 22Rv1 cells incubated for 24 hrs by Western blot analysis; format: cell-based
[8] = tested on: Androgen receptor (Homo sapiens), P10275 [UNDEFINED MUTATION]; assay: as §1; format: cell-based; conditions: dose 1-10 µM
CWR22R [9] = assay: Downregulation of MMP16 mRNA expression in human 22Rv1 cells at 10 uM incubated for 24 hrs by qRT-PCR analysis; format: functional, cell-based
CWR22R [10] = assay: Downregulation of KLK3 mRNA expression in human 22Rv1 cells incubated for 24 hrs by qRT-PCR analysis; format: functional, cell-based; conditions: dose 5-10 µM
CWR22R [11] = assay: Induction of cell cycle arrest in human 22Rv1 cells assessed as accumulation of cells at G0/G1 phase at 1 uM incubated for 24 hrs by DAPI staining based flow cytometric analysis (reference value: 26.3 %); format: functional
CWR22R [12] = assay: Downregulation of KLK3 mRNA expression in human 22Rv1 cells at 10 uM incubated for 24 hrs by qRT-PCR analysis; format: functional, cell-based
[13] = target: T1, Androgen receptor (Homo sapiens) (UniProt P10275); assay: Induction of AR degradation in human LNCaP cells at 5 uM by Western blot analysis; format: cell-based; conditions: time <= 24.0 hrs, TDE = time-dependent effect
T1 sequence (whole entry): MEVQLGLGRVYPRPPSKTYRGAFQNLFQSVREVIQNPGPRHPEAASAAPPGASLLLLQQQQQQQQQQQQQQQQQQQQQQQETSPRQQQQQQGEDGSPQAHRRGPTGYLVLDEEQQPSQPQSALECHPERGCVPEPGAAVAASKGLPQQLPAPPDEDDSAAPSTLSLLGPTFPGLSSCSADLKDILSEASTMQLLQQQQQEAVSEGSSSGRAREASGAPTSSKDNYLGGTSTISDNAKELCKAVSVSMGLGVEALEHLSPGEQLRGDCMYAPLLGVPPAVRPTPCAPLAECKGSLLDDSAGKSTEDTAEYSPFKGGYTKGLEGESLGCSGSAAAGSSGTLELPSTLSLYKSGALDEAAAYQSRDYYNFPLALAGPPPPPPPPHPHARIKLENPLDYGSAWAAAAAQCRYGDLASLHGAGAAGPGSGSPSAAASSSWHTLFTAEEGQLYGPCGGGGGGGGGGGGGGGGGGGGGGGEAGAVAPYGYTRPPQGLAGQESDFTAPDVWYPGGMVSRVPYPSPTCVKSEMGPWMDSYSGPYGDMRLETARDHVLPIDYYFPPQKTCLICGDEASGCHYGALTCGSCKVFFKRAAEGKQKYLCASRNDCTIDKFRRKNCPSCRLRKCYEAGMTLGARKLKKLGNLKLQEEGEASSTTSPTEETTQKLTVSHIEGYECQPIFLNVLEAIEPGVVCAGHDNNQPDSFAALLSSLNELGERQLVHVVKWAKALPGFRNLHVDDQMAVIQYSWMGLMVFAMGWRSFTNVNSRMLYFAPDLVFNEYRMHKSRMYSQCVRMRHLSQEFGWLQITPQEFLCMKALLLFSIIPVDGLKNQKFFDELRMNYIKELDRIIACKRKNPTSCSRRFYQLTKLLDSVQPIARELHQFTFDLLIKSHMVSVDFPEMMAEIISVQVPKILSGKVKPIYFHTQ

[14] = Toxicity in NSG mouse xenografted with human 22Rv1 cells assessed as liver damage t at 30 mg/kg, IG administered once daily for 21 days by H and E staining based analysis; format: organism-based, CWR22R; conditions: in vivo, po, 504 h, time 21 day
CWR22R [15] = assay: Effect on ER level in human 22Rv1 at 2.5 to 20 uM incubated for 24 hrs by Western blot analysis; format: functional, cell-based; conditions: dose 2.5-20 µM
[16] = tested on: Androgen receptor (Homo sapiens), P10275 [UNDEFINED MUTATION]; assay: Induction of AR-V7 degradation in human 22Rv1 cells at 20 uM incubated for 24 hrs in presence of Bortezomib by Western blot analysis; format: cell-based
CWR22R [17] = assay: Effect on MR level in human 22Rv1 at 2.5 to 20 uM incubated for 24 hrs by Western blot analysis; format: functional, cell-based; conditions: dose 2.5-20 µM
[18] = Toxicity in NSG mouse xenografted with human 22Rv1 cells assessed as lung damage t at 30 mg/kg, IG administered once daily for 21 days by H and E staining based analysis; format: organism-based, CWR22R; conditions: in vivo, po, 504 h, time 21 day
CWR22R [19] = assay: Downregulation of […] mRNA expression in human 22Rv1 cells incubated for 24 hrs by qRT-PCR analysis; format: functional, cell-based; conditions: dose 5-10 µM
[20] = Antiproliferative activity against human L02 cells assessed as inhibition of cell growth incubated for 48 hrs by CCK-8 assay; format: toxicity, cell-based
[21] = target: T1, Androgen receptor (Homo sapiens); assay: Binding affinity to AR-NTD in human 22Rv1 cels by SPR analysis
LNCaP = assay: Antiproliferative activity against human LNCaP cells assessed as inhibition of cell growth incubated for 48 hrs by CCK-8 assay; format: functional, cell-based
[22] = Half life in Sprague-Dawley rat at 5 mg/kg, iv by LC-MS/MS analysis; format: ADME, organism-based; conditions: in vivo
CWR22R [23] = assay: Downregulation of DHCR24 mRNA expression in human 22Rv1 cells at 10 uM incubated for 24 hrs by qRT-PCR analysis; format: functional, cell-based
CWR22R [24] = assay: Induction of apoptosis in human 22Rv1 cells assessed as effect on Bcl-xL level incubated for 24 hrs by Western blot analysis; format: functional, cell-based; conditions: dose <= 10.0 µM
CWR22R [25] = assay: Downregulation of AR-V7 mRNA expression in human 22Rv1 cells at 5 to 10 uM incubated for 12 hrs by qRT-PCR analysis; format: functional, cell-based; conditions: dose 5-10 µM
[26] = tested on: Androgen receptor (Homo sapiens), P10275 [UNDEFINED MUTATION]; assay: Induction of AR-V7 degradation in human 22Rv1 cells at 10 uM incubated for 24 hrs in presence of […] by Western blot analysis; format: cell-based
CWR22R [27] = assay: Downregulation of MYC mRNA expression in human 22Rv1 cells at 10 uM incubated for 24 hrs by qRT-PCR analysis; format: functional, cell-based

In the case of `CC1(C)C(=O)N(c2ccc(C#N)c(C(F)(F)F)c2)C(=O)N1CCNc1ccc(F)c2ncccc12`, the bioavailability [1] is reported as 11.9%, the AUC(0-inf) [2] is reported as 2920 ng·h/mL and the MRT last [3] is reported as 3.2 h. For the same compound, the AUC(0-inf) [4] was 3470 ng·h/mL, the Activity (CWR22R [5]) was “Dose-Dependent Effect” and the IC50 (DU-145) was greater than 50000 nM. For the same compound, the inhibition in vivo at 30 mg/kg (CWR22R [6]) was 63%, the Activity (CWR22R [7]) was 30.91% and the DC50 (Androgen receptor) was 2640 nM. For the same compound, the Activity [8] was “Dose-Dependent Effect”, the Activity (CWR22R [9]) was “Active” and the Activity (CWR22R [10]) was “Dose-Dependent Effect”. For the same compound, the Activity (CWR22R [11]) was 41.5%, the Activity (CWR22R [12]) was “Active” and the Activity [13] was “Tde”. For the same compound, the Activity [14] was “Non-Toxic”, the Activity (CWR22R [15]) was “Active” and the Activity [16] was “Active”. The Activity (CWR22R [17]) was “Active”, the Activity [18] was “Non-Toxic” and the Activity (CWR22R [19]) was “Dose-Dependent Effect”. For the same compound, the IC50 at 48 h [20] was greater than 100000 nM, the Activity [21] was “Active” and the IC50 (LNCaP) was 1400 nM. For the same compound, the half-life [22] was 1.4 h, the Activity (CWR22R [23]) was “Active” and the Activity (CWR22R [24]) was “Dose-Dependent Effect”. The Activity (CWR22R [25]) was “Active”, the Activity [26] was “Active” and the Activity (CWR22R [27]) was “Active”.
